Series [1] concerns the target T1, uric acid-xanthine/H+ symporter (UapA) (Emericella nidulans, UniProt Q07307, G411V).
T1 construct: GFP; made in house; host or cells: Saccharomyces cerevisiae FGY217
Nature of the series: Thermal/structural stability of UapA by CPM fluorescence assay. Particulars: CMC+0.2 wt %, 125 minutes at 40° C., FIG. 10. The series is classed as biochemical, Aspergillus nidulans. On the procedure: An experiment of measuring structural stability of a uric acid-xanthine/H+ symporter (UapA) separated from Aspergillus nidulans by TMG was performed. The structural stability of UapA was evaluated using a sulfhydryl-specific fluorophore and N-[4-(7-diethylamino-4-methyl-3-coumarinyl)phenyl]maleimide (CPM).
Specifically, UapAG411V1-11 (hereinafter, referred to as “UapA”) expressed as a GFP fusion protein from a Saccharomyces cerevisiae FGY217 strain, and the protein was separated using a sample buffer (20 mM Tris (pH 7.5), 150 mM NaCl, 0.03% DDM, 0.6 mM xanthine) according to a method disclosed in the article written by J. Leung et al. (Mol. Membr. Biol. 2013, 30, 32-42). The protein having a molecular weight of 100 kDa was concentrated to approximately 10 mg/mL using a cut-off filter (Millipore). The protein was diluted with a buffer containing each of the TMG-As (TMG-A11, TMG-A12, TMG-A13 and TMG-A14), TMG-Ts (TMG-T11, TMG-T12, TMG-T13 and TMG-T14), MNG-3 or DDM at a ratio of 1:150 to reach the final concentration of CMC+0.04 wt % or CMC+0.2 wt % in a Greiner 96-well plate. A CPM dye (Invitrogen) stored in DMSO (Sigma) was diluted with a staining buffer (20 mM Tris (pH 7.5), 150 mM NaCl, 0.03% DDM, 5 mM EDTA), and 3 μL of the staining buffer was added to each sample. The reaction mixture was incubated at a constant temperature for 125 minutes at 40° C. Fluorescence emission was recorded using a microplate spectrofluorometer set to each of excitation and emission wavelengths of 387 nm and 463 nm. A relative amount of folded proteins was plotted over time using GraphPad Prism.

A short description of series [2]: Critical micelle concentration by fluorescent staining with diphenylhexatriene (DPH). The series is classed as physicochemical. Conditions: aqueous solution. The procedure: A method of measuring CMC is not particularly limited, and any method well known in the art, for example, a fluorescent staining method using diphenylhexatriene (DPH) may be used.
(§1) Specifically, a CMC was measured using fluorescent staining and diphenylhexatriene (DPH), and the hydrodynamic radii (Rh) of micelles formed by each agent (1.0 wt %) were measured by a DLS test. The measured results were compared with those for the conventional amphipathic molecule (detergent), DDM, and thus are shown in Table 1.

The nature of series [3]: Hydrodynamic radius of micelles by dynamic light scattering (DLS). Type of series: physicochemical. Particulars: micelles formed by each agent at 1.0 wt %. On the procedure:
A method of measuring the radius of the micelles is not particularly limited, and any method well known in the art, for example, a DLS test may be used.
as §1

Series [4] deals with T2, human β2 adrenergic receptor (β2AR) (Homo sapiens, UniProt P07550).
T2 construct: made in house; host or cells: cell membrane
Description: β2AR stability by [3H]-dihydroalprenolol (DHA) ligand binding assay. The series is classed as biochemical. Particulars: CMC+0.2 wt %; for long-term maintenance of binding between β2AR and ligand: 7-day incubation at room temperature, FIG. 14b; for initial β2AR receptor activity ([3H]-DHA binding): FIG. 14a. The procedure:
Experiments for measuring stability of a human β2 adrenergic receptor (β2AR) and a G-protein-coupled receptor (GPCR) by TMGs were performed. A receptor was extracted from a cell membrane using 1% DDM and purified with a 0.1% amphipathic molecule. The receptor purified with the DDM was diluted with a buffer solution containing DDM or TMGs to adjust the final concentration of the compound to CMC+0.2 wt %. β2AR solubilized by each amphipathic molecule was stored for 7 days at room temperature, and the sample was incubated with 10 nM [^3H]-dihydroalprenolol (DHA) supplemented with 0.5 mg/ml BSA for 30 minutes at room temperature to evaluate a ligand-binding ability at regular intervals during the experimental period. The mixture was loaded onto a G-50 column, and a liquid running through the column was collected using 1 ml of a binding buffer (20 mM HEPES containing 0.5 mg/ml BSA and 20×CMC of each amphipathic molecule, pH 7.5, 100 mM NaCl). In addition, 15 ml of a scintillation fluid was added, and receptor-bound [^3H]-DHA was measured using a scintillation counter (Beckman). A binding degree of the [^3H]-DHA was shown by a column graph (FIG. 14). The experiment was repeated three times.

The test system of series [5] is LeuT (leucine transporter). Description: LeuT stability by [3H]-Leu substrate binding, scintillation proximity assay (SPA). Type of series: biochemical, Aquifex aeolicus. Particulars: TMGs or DDM at CMC+0.04 wt %, 10 days at room temperature. The procedure:
An experiment of measuring LeuT protein stability for TMGs and TMMs was performed. (a) CMC+0.04 wt % or (b) CMC+0.2 wt % of each amphipathic molecule was used, and the evaluation of the LeuT protein stability was performed by taking an advantage of a characteristic of LeuT binding to a substrate through a scintillation proximity assay (SPA) using [^3H]-Leu. […]
Specifically, wild type LeuT (leucine transporter) derived from a thermophilic bacterium, Aquifex aeolicus, was purified by a previously-disclosed method (G. Deckert et al., Nature 1998, 392, 353-358). LeuT was expressed in E. coli C41 (DE3) transformed with pET16b encoding a C-terminus 8×His-tagged transporter (the expression plasmid was provided by Dr E. Gouaux, Vollum Institute, Portland, Oreg., USA). In summary, following isolation of a bacterial membrane and lysis with 1% (w/v) DDM, the protein was allowed to bind to a Ni^2+-NTA resin (Life Technologies, Denmark), and eluted in 20 mM Tris-HCl (pH 8.0), 1 mM NaCl, 199 mM KCl, 0.05% (w/v) DDM and 300 mM imidazole. Afterward, the purified LeuT (approximately 1.5 mg/ml) was diluted with the same buffer used above, from which DDM and imidazole were removed, and then supplemented with TMGs or DDM at the final concentration of CMC+0.04% (w/v). […] SPA was performed using a buffer containing 450 mM NaCl and each of the TMGs and TMMs at the predetermined concentration. The SPA reaction is performed in the presence of 20 nM [^3H]-Leucine and 1.25 mg/ml copper chelate (His-Tag) YSi beads (Perkin Elmer, Denmark). A total [^3H]-Leucine binding degree of each sample was measured using a MicroBeta liquid scintillation counter (Perkin Elmer).

“Also recorded” adds a separate entry of the source.

Five compounds from patent US10808003B2, “Amphipathic molecule based on tandem malonate and use thereof” (Industry-University Cooperation Foundation Hanyang …, priority 2017, dated 2020) can be followed below.

T2 sequence (P07550 whole entry): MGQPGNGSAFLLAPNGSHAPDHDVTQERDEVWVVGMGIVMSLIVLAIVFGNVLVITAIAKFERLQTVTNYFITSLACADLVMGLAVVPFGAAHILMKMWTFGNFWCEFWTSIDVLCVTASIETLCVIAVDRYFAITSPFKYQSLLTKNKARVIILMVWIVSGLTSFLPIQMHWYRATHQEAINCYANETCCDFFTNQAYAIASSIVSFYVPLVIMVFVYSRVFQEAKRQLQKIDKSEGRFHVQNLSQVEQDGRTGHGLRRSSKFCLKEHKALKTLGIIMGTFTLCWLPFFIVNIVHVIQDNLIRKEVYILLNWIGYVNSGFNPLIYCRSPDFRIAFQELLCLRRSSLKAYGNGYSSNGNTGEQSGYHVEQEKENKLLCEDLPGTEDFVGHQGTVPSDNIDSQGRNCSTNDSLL
T1 sequence (Q07307 12-574 G411V): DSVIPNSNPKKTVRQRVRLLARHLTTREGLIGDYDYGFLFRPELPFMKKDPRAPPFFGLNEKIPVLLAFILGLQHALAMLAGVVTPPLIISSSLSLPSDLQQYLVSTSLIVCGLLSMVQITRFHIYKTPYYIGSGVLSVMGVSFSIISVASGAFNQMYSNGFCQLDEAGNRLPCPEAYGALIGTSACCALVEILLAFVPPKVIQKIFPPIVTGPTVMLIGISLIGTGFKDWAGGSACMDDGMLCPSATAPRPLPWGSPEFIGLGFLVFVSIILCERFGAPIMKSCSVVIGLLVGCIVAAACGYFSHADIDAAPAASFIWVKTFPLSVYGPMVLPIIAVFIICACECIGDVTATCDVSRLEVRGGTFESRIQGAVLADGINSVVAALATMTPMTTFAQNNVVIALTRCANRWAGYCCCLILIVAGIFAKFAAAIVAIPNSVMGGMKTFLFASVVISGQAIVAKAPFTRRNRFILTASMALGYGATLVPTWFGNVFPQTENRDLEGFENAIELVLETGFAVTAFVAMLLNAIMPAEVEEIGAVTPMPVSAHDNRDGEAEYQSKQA

As for `CCCCCCCCCCCCCC(CCCC(CCCCCCCCCCCCC)(CO[C@@H]1OC(CO)[C@@H](O)C(O)C1O)CO[C@@H]1OC(CO)[C@@H](O)C(O)C1O)(CO[C@@H]1OC(CO)[C@@H](O)C(O)C1O)CO[C@@H]1OC(CO)[C@@H](O)C(O)C1O` (some centres unmarked) [TMG-A13], the “ability to conserve UapA transporter in a folded state” value (shortened to “ability … in a folded state”) in series [1] is given as “excellent effect of stabilizing transporter folding”. In addition, in series [2], the “CMC” value is roughly 0.006 mM and the “CMC (wt %)” value was roughly 0.0007 wt %. In series [3], the “Rh (nm), hydrodynamic radius of micelles” value stood at 3.6 ± 0.16 nm. In series [4], the “long-term maintenance of binding between β2AR and ligand” value (shortened to “long-term maintenance”) is “superior to DDM in terms of long-term maintenance of binding between the receptor and the ligand”; the “initial β2AR receptor activity ([3H]-DHA binding)” value was “as effective as DDM”.
For the compound `CCCCCCCCCCCCCCC(CCCC(CCCCCCCCCCCCCC)(CO[C@@H]1OC(CO)[C@@H](O)C(O)C1O)CO[C@@H]1OC(CO)[C@@H](O)C(O)C1O)(CO[C@@H]1OC(CO)[C@@H](O)C(O)C1O)CO[C@@H]1OC(CO)[C@@H](O)C(O)C1O` (some centres unmarked) [TMG-A14], in series [1], the “ability … in a folded state” value is recorded as “excellent effect of stabilizing transporter folding”. In addition, in series [2], the “CMC” value is given as roughly 0.004 mM and the “CMC (wt %)” value is reported as roughly 0.0005 wt %. Moreover, the “Rh (nm), hydrodynamic radius of micelles” value in series [3] was 3.8 ± 0.10 nm. The “long-term maintenance” value in series [4] was “superior to DDM in terms of long-term maintenance of binding between the receptor and the ligand”.
Take `CCCCCCCCCCCOCC(CO[C@@H]1OC(CO)[C@@H](O)C(O)C1O)(CO[C@@H]1OC(CO)[C@@H](O)C(O)C1O)CSCC(COCCCCCCCCCCC)(CO[C@@H]1OC(CO)[C@@H](O)C(O)C1O)CO[C@@H]1OC(CO)[C@@H](O)C(O)C1O` (some centres unmarked) [TMG-T11]: in series [5], the “substrate-binding ability of LeuT” value is “a better characteristic than DDM”. The “ability … in a folded state” value in series [1] was “the least effective, and had lower stability than DDM”. For the same compound, in series [2], the “CMC” value is roughly 0.020 mM and the “CMC (wt %)” value is reported as roughly 0.0025 wt %. Besides, the “Rh (nm), hydrodynamic radius of micelles” value in series [3] stood at 3.0 ± 0.07 nm.
Turning to `CCCCCCCCCCCCCOCC(CO[C@@H]1OC(CO)[C@@H](O)C(O)C1O)(CO[C@@H]1OC(CO)[C@@H](O)C(O)C1O)CSCC(COCCCCCCCCCCCCC)(CO[C@@H]1OC(CO)[C@@H](O)C(O)C1O)CO[C@@H]1OC(CO)[C@@H](O)C(O)C1O` (some centres unmarked) [TMG-T13], the “substrate-binding ability of LeuT” value in series [5] is listed as “a better characteristic than DDM”. In series [1], the “ability … in a folded state” value is reported as “excellent effect of stabilizing transporter folding”. Besides, in series [2], the “CMC” value is reported as roughly 0.006 mM and the “CMC (wt %)” value is reported as roughly 0.0008 wt %. The “Rh (nm), hydrodynamic radius of micelles” value in series [3] is reported as 3.3 ± 0.08 nm. In series [4], the “long-term maintenance” value was “superior to DDM in terms of long-term maintenance of binding between the receptor and the ligand”; the “initial β2AR receptor activity ([3H]-DHA binding)” value was “as effective as DDM”.
With `CCCCCCCCCCCCCCOCC(CO[C@@H]1OC(CO)[C@@H](O)C(O)C1O)(CO[C@@H]1OC(CO)[C@@H](O)C(O)C1O)CSCC(COCCCCCCCCCCCCCC)(CO[C@@H]1OC(CO)[C@@H](O)C(O)C1O)CO[C@@H]1OC(CO)[C@@H](O)C(O)C1O` (some centres unmarked) [TMG-T14], the “substrate-binding ability of LeuT” value in series [5] was “a better characteristic than DDM”. Also, in series [1], the “ability … in a folded state” value is on record as “excellent effect of stabilizing transporter folding”. Also, in series [2], the “CMC” value is recorded as roughly 0.004 mM and the “CMC (wt %)” value was roughly 0.0005 wt %. Further, the “Rh (nm), hydrodynamic radius of micelles” value in series [3] turned out to be 3.8 ± 0.09 nm. Further, the “long-term maintenance” value in series [4] is “superior to DDM in terms of long-term maintenance of binding between the receptor and the ligand; also recorded: most excellent in maintenance of binding between a receptor and a ligand”.
